# Measurements as given in the Bradley open melting point set (2014).
row,SMILES,melting point [°C]
1,Clc1ncc[nH]1 [2-chloroimidazole],166
2,c1ccc(Oc2ccccc2)cc1 [phenyl_ether],28
3,"c1ccc2c(c1)Cc1cc3ccccc3cc1-2 [2,3-Benzofluorene Benzo[b]fluorene]",210
4,Oc1ccccc1O [Pyrocatechol],105
5,Oc1ccccc1/C=N/n1c(S)nnc1C(F)(F)F,156
6,CCCC(=O)OC [Methyl butyrate],-95
7,C[C@@H]1C[C@H]2[C@@H]3CCC4=CC(=O)C=C[C@]4(C)[C@@]3(F)[C@@H](O)C[C@]2(C)[C@@]1(O)C(=O)CO [Dexamethasone],262
8,OCc1ccc(-c2ccccc2)cc1 [p-phenylbenzyl alcohol],105
9,Oc1ccc2[nH]ccc2c1 [5-hydroxyindole],109
10,Oc1ccc(OCc2ccccc2)cc1 [Monobenzone],114
11,CC(C)[C@H](NC(=O)OCC1c2ccccc2-c2ccccc21)C(=O)O [N-fmoc-L-valine],144
12,CN(C)CCO [2-(Dimethylamino)ethanol],-70
13,"O=[N+]([O-])c1c(Cl)c(Cl)cc(Cl)c1Cl [2,3,5,6-Tetrachloronitrobenzene]",99.5
14,"COc1c(OC)c(=O)c1=O [3,4-dimethoxy-3-cyclobutene-1,2-dione]",55
15,ClC(Cl)Br [bromodichloromethane],-55
16,COC(=O)c1ccc(O)cc1 [Methyl 4-hydroxybenzoate],131
17,O=C(O)c1ccccc1[N+](=O)[O-] [o-nitrobenzoic_acid],148
18,CCO [ethanol],-114
19,"Cc1cc(C)cc(C=O)c1 [3,5-dimethylbenzaldehyde]",9
20,O=C(CO)[C@H](O)[C@@H](O)[C@H](O)CO [D-Sorbose],95
21,CN1CCN(C2CCNCC2)CC1 [1-methyl-4-(4-piperidinyl)piperazine],55

row,SMILES,melting point [°C]
1,O[C@@H]1[C@H](O)[C@@H](O)OC[C@H]1O [D-lyxose],112
2,N#Cc1cccc(C=O)c1 [3-cyanobenzaldehyde],77
3,"COc1cccc(OC)c1P(c1c(OC)cccc1OC)c1c(OC)cccc1OC [tris(2,6-dimethoxyphenyl)phosphine]",146
4,CCOC(=O)c1ccc(N)cc1 [ethyl p-aminobenzoate],89
5,COC(=O)CCC(C)C1CCC2C3CCC4CC(=O)CCC4(C)C3CCC12C (configuration not stated) [methyl 3-oxocholan-24-oate],117
6,c1ccc(CC2CCNCC2)cc1 [4-benzylpiperidine],7
7,N#CCc1ccc(Br)cc1 [p-bromophenylacetonitrile],48
8,Cn1c(=O)c2c(ncn2C)n(C)c1=O [caffeine],238
9,N#Cc1cccc2c(N)cccc12 [5-aminonaphthalene-1-carbonitrile],137
10,CCC(C)NC(=O)C(C(F)(F)F)C(F)(F)F (configuration not stated),112
11,N#Cc1ccccc1 [Benzonitrile],-13
12,N#Cc1ccc(C=O)cc1 [4-cyanobenzaldehyde],102
13,Cc1cc(C)cc(C)c1 [mesitylene],-45
14,"BrCCCCCBr [1,5-dibromopentane]",-40
15,CC(C)(C)OC(=O)N[C@@H](Cc1ccccc1)C(=O)O [N-boc-L-phenylalanine],87
16,"Cc1ccc(C)n1-c1ccccc1 [2,5-dimethyl-1-phenylpyrrole]",50
17,ClC1=C(Cl)C2(Cl)C3C(Cl)C(Cl)CC3C1(Cl)C2(Cl)Cl (stereo not drawn) [trans-Chlordane],106
18,CC1(C)c2ccccc2N(Cc2ccccc2)C12C=Cc1cc([N+](=O)[O-])ccc1O2 (configuration not stated),159
19,CCCCC1CCCCC1 [Butylcyclohexane],-75
20,COC(=O)c1ccc(N(C)C)cc1 [methyl 4-dimethylaminobenzoate],100
21,C[N+](=O)[O-] [nitromethane],-29
